Calls of active or inactive are those of the source.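 The calls were made as follows: active = hERG flux cut by over 30% at some tested dose, with a fitted dose response curve; inactive = no hERG inhibition at any dose or no curve.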
Each compound was assayed against Voltage-gated inwardly rectifying potassium channel KCNH2 (Homo sapiens) (UniProt Q12809) (assay: hERG channel inhibition in selectivity testing, SAR follow-up, selectivity assay for TASK1 inhibitor project, FluxOR thallium flux, concentration-response, CHO cells (AID 652194)). Conditions: hERG-expressing cells, FluxOR thallium flux fluorescence.
Voltage-gated inwardly rectifying potassium channel KCNH2 (Homo sapiens), sequence (Q12809 whole entry, looked up): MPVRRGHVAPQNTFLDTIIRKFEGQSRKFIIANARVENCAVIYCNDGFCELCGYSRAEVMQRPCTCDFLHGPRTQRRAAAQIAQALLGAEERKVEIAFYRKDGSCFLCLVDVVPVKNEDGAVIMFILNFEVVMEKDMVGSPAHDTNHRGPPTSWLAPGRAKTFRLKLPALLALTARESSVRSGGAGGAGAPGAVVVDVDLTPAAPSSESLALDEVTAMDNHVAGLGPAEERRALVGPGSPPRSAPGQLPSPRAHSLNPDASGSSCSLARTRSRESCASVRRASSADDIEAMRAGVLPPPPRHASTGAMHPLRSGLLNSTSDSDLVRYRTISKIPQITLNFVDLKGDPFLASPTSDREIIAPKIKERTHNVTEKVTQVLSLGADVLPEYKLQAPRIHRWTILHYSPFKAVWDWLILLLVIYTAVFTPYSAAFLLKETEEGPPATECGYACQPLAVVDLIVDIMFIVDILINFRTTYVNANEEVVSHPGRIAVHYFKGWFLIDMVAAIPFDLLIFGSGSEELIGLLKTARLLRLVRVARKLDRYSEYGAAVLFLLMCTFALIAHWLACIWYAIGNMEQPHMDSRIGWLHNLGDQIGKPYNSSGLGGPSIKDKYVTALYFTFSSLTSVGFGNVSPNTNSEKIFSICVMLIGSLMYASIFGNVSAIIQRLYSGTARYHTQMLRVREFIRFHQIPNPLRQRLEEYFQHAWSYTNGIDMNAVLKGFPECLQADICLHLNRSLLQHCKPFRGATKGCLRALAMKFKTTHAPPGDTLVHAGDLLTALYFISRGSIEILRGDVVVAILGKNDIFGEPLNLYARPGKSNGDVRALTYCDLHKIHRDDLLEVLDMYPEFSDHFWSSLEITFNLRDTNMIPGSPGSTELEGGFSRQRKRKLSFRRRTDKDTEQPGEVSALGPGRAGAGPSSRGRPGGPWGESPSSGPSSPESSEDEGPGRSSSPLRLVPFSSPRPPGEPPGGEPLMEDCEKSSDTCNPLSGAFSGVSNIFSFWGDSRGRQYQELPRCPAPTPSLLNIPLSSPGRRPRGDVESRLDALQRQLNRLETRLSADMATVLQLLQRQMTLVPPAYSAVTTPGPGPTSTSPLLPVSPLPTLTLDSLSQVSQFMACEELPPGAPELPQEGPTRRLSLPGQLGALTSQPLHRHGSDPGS

SMILES	IC50 [µM]
Cc1cccc(C(=O)Nc2cccc(NC(=O)c3cccc(C)c3)c2)c1	12.4

Same assay, conditions: hERG-expressing cells, FluxOR thallium flux fluorescence; at 30 µM (top of the series)

SMILES	flux ratio, lower = inhibition
O=C(Nc1cccc(NC(=O)c2cccc(Cl)c2)c1)c1ccccc1	inactive
CCOc1ccc(NC(=O)c2cccc(NC(=O)C3CCCC3)c2)cc1	inactive
CCOc1ccccc1NC(=O)c1cccc(NC(=O)c2ccc(C)cc2)c1	inactive
COc1ccc(F)cc1C(=O)Nc1cccc(NC(=O)c2cccc(C)c2)c1	inactive
COc1ccc(C(=O)Nc2cccc(NC(=O)c3ccccc3)c2)cc1	inactive
CCOc1ccccc1NC(=O)c1cccc(C(=O)NC2CCCC2)c1	inactive
CCOc1ccccc1NC(=O)c1cccc(NC(=O)c2ccccc2)c1	inactive
CCOc1ccccc1NC(=O)c1cccc(NC(=O)CC2CCCC2)c1	inactive
CCOc1ccccc1NC(=O)c1cccc(NC(=O)C2CC2)c1	inactive
COc1cccc(C(=O)Nc2cccc(NC(=O)c3ccccc3)c2)c1	inactive
CCOc1ccccc1NC(=O)c1cccc(NC(=O)c2ccc(Cl)cc2)c1	inactive
CCOc1ccccc1NC(=O)c1cccc(NC(=O)c2ccc(OC)cc2)c1	inactive
CCOc1ccccc1NC(=O)c1cccc(NC(=O)CC2CCCCC2)c1	inactive
Cc1cccc(S(=O)(=O)Nc2cccc(NC(=O)c3ccccc3)c2)c1	inactive
O=C(Nc1cccc(NC(=O)c2ccccc2C(F)(F)F)c1)c1ccccc1	inactive
COc1ccccc1NC(=O)c1cccc(NC(=O)c2ccccc2)c1	inactive
Cc1cccc(C(=O)Nc2cccc(NC(=O)c3ccco3)c2)c1	inactive
Cc1cccc(C(=O)Nc2cccc(NC(=O)c3cccs3)c2)c1	inactive
CCOc1ccccc1NC(=O)c1cccc(NC(=O)c2cccc(OC)c2)c1	inactive
CCOc1ccccc1NC(=O)c1cccc(NC(=O)C2CCCCC2)c1	inactive
Cc1cccc(C(=O)Nc2cccc(NC(=O)c3ccccc3OC(F)(F)F)c2)c1	inactive
Cc1ccccc1C(=O)Nc1cccc(NC(=O)c2ccccc2)c1	inactive
COc1ccccc1C(=O)Nc1cccc(NC(=O)c2cccc(C)c2)c1	inactive
O=C(Nc1cccc(NC(=O)c2cccnc2)c1)c1ccccc1	inactive

SMILES	flux ratio, lower = inhibition
O=C(Nc1cccc(NC(=O)c2cccc(C(F)(F)F)c2)c1)c1ccccc1	inactive
COc1ccccc1C(=O)Nc1cccc(NC(=O)c2cccc3ccccc23)c1	inactive
Cc1cccc(C(=O)Nc2cccc(NC(=O)c3ccc(N(C)C)cc3)c2)c1	inactive
O=C(Nc1cccc(NC(=O)c2ccc(F)cc2)c1)c1ccccc1	inactive
COc1cccc(OC)c1C(=O)Nc1cccc(NC(=O)c2cccc(C)c2)c1	inactive
CN(C)c1ccc(C(=O)Nc2cccc(NC(=O)c3ccccc3)c2)cc1	inactive
COc1ccccc1NC(=O)c1cccc(NC(=O)c2ccccc2OC)c1	inactive
O=C(Nc1cccc(NC(=O)c2cccc(F)c2)c1)c1ccccc1	inactive
O=C(Nc1cccc(NC(=O)c2ccccc2Cl)c1)c1ccccc1	inactive
CCOc1ccccc1NC(=O)c1cccc(NC(=O)c2ccccc2OC(F)(F)F)c1	inactive
Cc1cccc(C(=O)Nc2ccccc2NC(=O)c2ccccc2)c1	inactive
Cc1cccc(C(=O)Nc2cccc(NC(=O)c3ccc(Cl)cc3)c2)c1	inactive
O=C(Nc1cccc(NC(=O)c2ccccn2)c1)c1ccccc1	inactive
CCOc1ccccc1NC(=O)c1cccc(NC(=O)C(C)(C)C)c1	inactive
CCOc1ccccc1NC(=O)c1cccc(NC(=O)c2cccc(Cl)c2)c1	inactive
CCOc1ccccc1C(=O)Nc1cccc(NC(=O)c2ccccc2OC)c1	inactive
Cc1cccc(C(=O)Nc2cccc(NC(=O)c3ccc(C(F)(F)F)cc3)c2)c1	inactive
CC(C)c1ccccc1C(=O)Nc1cccc(NC(=O)c2ccccc2OC(F)(F)F)c1	inactive
Cc1cccc(C(=O)Nc2cccc(NC(=O)c3ccccc3C(F)(F)F)c2)c1	inactive
CCOc1ccccc1NC(=O)c1cccc(NC(=O)c2ccccc2C(F)(F)F)c1	inactive
COc1ccccc1NC(=O)c1cccc(NC(=O)CC2CCCC2)c1	inactive
O=C(Nc1cccc(NC(=O)C2CCCCC2)c1)c1ccccc1	inactive
Cc1cccc(C(=O)Nc2cccc(NC(=O)c3cccc(C(F)(F)F)c3)c2)c1	inactive
COc1ccccc1C(=O)Nc1cc(NC(=O)c2ccccc2C(C)C)ccc1F	inactive

SMILES	flux ratio, lower = inhibition
O=C(Nc1cccc(NC(=O)c2ccc(Cl)cc2)c1)c1ccccc1	inactive
COc1ccccc1C(=O)Nc1cccc(NC(=O)c2ccccc2OC)c1	inactive
CC(C)(C)c1ccc(C(=O)Nc2cccc(NC(=O)c3ccccc3)c2)cc1	inactive
COc1ccccc1NC(=O)c1cccc(NC(=O)C2CCCCC2)c1	inactive
COc1ccccc1C(=O)Nc1cccc(NC(=O)c2ccccc2C(C)C)c1	inactive
Cc1cccc(NC(=O)c2ccccc2NC(=O)c2ccccc2)c1	inactive
Cc1cccc(C(=O)Nc2cccc(NC(=O)C3CCCCC3)c2)c1	inactive
Cc1cccc(C(=O)Nc2ccccc2C(=O)Nc2ccccc2)c1	inactive
Cc1cccc(C(=O)Nc2cccc(NC(=O)c3ccccc3C(C)C)c2)c1	inactive
CCOc1ccccc1NC(=O)c1cccc(NC(=O)C2CCCO2)c1 (stereo not given)	inactive
O=C(Nc1cccc(NC(=O)c2cccs2)c1)c1ccccc1	inactive
COc1ccccc1C(=O)Nc1cccc(NC(=O)c2ccccc2C)c1	inactive
COc1cccc(C(=O)Nc2cccc(NC(=O)c3cccc(C)c3)c2)c1	inactive
CCOc1ccccc1NC(=O)c1cccc(NC(=O)C2CCCC2)c1	inactive
Cc1ccc(C(=O)Nc2cccc(NC(=O)c3ccccc3)c2)cc1	inactive
Cc1cccc(C(=O)Nc2cccc(C(=O)Nc3ccccc3)c2)c1	inactive
COc1ccccc1C(=O)Nc1cccc(NC(=O)c2ccccc2)c1	inactive
Cc1cccc(C(=O)Nc2cccc(NC(=O)c3ccncc3)c2)c1	inactive
CCOc1ccccc1C(=O)Nc1cccc(NC(=O)c2cccc(C)c2)c1	inactive
CCOc1ccccc1NC(=O)c1cccc(NC(=O)C2CCOC2)c1 (stereo not given)	inactive
CCOc1ccccc1NC(=O)c1cccc(NC(=O)c2cccc(C)c2)c1	inactive
COc1ccccc1C(=O)Nc1cccc(NC(=O)c2ccccc2OC(F)(F)F)c1	inactive
COc1cnccc1C(=O)Nc1cccc(NC(=O)c2cccc(C)c2)c1	inactive
O=C(Nc1cccc(NC(=O)c2ccccc2)c1)c1ccccc1	inactive

SMILES	flux ratio, lower = inhibition
CCOc1ccccc1C(=O)Nc1cccc(NC(=O)c2ccccc2C(F)(F)F)c1	inactive
Cc1cccc(C(=O)Nc2cccc(NC(=O)c3ccccc3C)c2)c1	inactive
CCOc1ccccc1C(=O)Nc1cccc(NC(=O)C2CCCC2)c1	inactive
O=C(Nc1cccc(NC(=O)c2ccsc2)c1)c1ccccc1	inactive
CCOc1ccccc1NC(=O)c1cccc(NC(=O)c2ccccc2Cl)c1	inactive
COc1ccccc1C(=O)Nc1cc(NC(=O)c2cccc(C)c2)ccc1F	inactive
CCOc1ccccc1NC(=O)c1cccc(NC(=O)c2cccc(C(F)(F)F)c2)c1	inactive
Cc1cccc(C(=O)Nc2cccc(NC(=O)c3ccccc3Cl)c2)c1	inactive
O=C(Nc1cccc(NC(=O)c2ccc(C(F)(F)F)cc2)c1)c1ccccc1	inactive
O=C(Nc1cccc(NC(=O)c2ccncc2)c1)c1ccccc1	inactive
CC(C)Oc1ccccc1C(=O)Nc1cccc(NC(=O)c2ccccc2OC(F)(F)F)c1	inactive
COc1ccc(C(=O)Nc2cccc(NC(=O)c3cccc(C)c3)c2)cc1	inactive
Cc1cccc(C(=O)Nc2cccc(NC(=O)c3cccc(F)c3)c2)c1	inactive
CCOc1ccccc1NC(=O)c1cccc(NC(=O)c2ccc(C(F)(F)F)cc2)c1	inactive
O=C(Nc1cccc(NC(=O)c2ccoc2)c1)c1ccccc1	inactive
COc1c(F)cccc1C(=O)Nc1cccc(NC(=O)c2cccc(C)c2)c1	inactive
COc1ccccc1NC(=O)c1cccc(NC(=O)c2ccccc2C(F)(F)F)c1	inactive
O=C(Nc1ccccc1Cl)c1cccc(NC(=O)C2CCCC2)c1	inactive
Cc1cccc(NC(=O)c2cccc(NC(=O)c3ccccc3)c2)c1	inactive
O=C(Nc1cccc(NC(=O)c2ccco2)c1)c1ccccc1	inactive
CCOc1ccccc1NC(=O)c1cccc(NC(=O)c2ccccc2OC)c1	inactive
Cc1cccc(C(=O)Nc2cccc(NC(=O)c3ccccc3OCC(C)C)c2)c1	inactive

Reference: PubChem BioAssay AID652194 (Johns Hopkins Ion Channel Center, 2013)
